Results: patent US12503446B2, “Bromodomain inhibitors” (FORSCHUNGSZENTRUM JÜLICH GMBH, priority 2019, dated 2025)

Experiments:
[1] = system: erythroleukaemia cell line HEL (JAK2V617F-positive); test: MTT assay, metabolic activity of HEL cells; assay type: cell-based; details: 1 μM, 72 h, DMSO control set to 100%
Experimental: (§1) All studies with the HEL, Molm-14 and K562 cell lines mentioned (sourced from DSMZ: ACC-11, ACC-10 and ACC-777) were conducted under germ-free conditions under a sterile hood. Incubation was effected at 37° C. in an incubator at a CO2 saturation of 5%. For the passage of the suspension cells, the cells were transferred in a Falcon prefilled with PBS (phosphate buffered saline) and centrifuged at 1200 rpm for 5 min. All three cell lines were cultured in RPMI-1640 medium (Gibco, Thermo Fischer Scientific, Darmstadt, Germany) with 10% FCS and 1% penicillin streptomycin.
(§2) The viability and metabolic activity of the cells were measured by the MTT assay. Yellow, water-soluble MTT (3-([…])-2,5-diphenyltetrazolium bromide) is a tetrazolium salt which is reduced to dark blue formazan in living cells. Insoluble formazan is released by addition of isopropanol-HCl, and its intensity can be determined by photometry at a wavelength of 550 nm. Thus, the proportion of living cells is measured by comparison with a particular control sample. The cells were counted and washed with PBS, and 30 000 cells per well were sown in triplicates in a 96-well plate. For the inhibitor treatment, the stated final concentrations were used. For this purpose, 10 µl of the appropriate inhibitor dilution was introduced into the 96-well plates, and then 90 μl of cell suspension was pipetted in. The plates were incubated in an incubator for 72 h (37° C., 5% CO2). After the incubation, 10 μl of MTT solution (5 mg/ml) was applied to the wells with a multichannel pipette and thoroughly resuspended. This was followed by incubation for 4 h in the dark at room temperature. Subsequently, the cells were resuspended in 100 μl of isopropanol-HCl and lysed, and absorption at a wavelength of 550 nm was measured by photometry with a plate reader (Kayto, RT-2100C).
(§3) The erythroleukaemia cell line HEL (JAK2V617F-positive), the AML cell line Molm-14 and the chronic myeloid leukaemia (CML) cell line K562 (BCR-ABL-positive) were used for cell experiments.
(§4) Compounds MF1-R, MF1-S, JHS1-R and JHS1-S were dissolved in DMSO, and each was used in concentrations of 0.1 μM, 1 μM, 10 μM and 20 μM. Correspondingly, DMSO was included in each case as a control treatment, and the metabolic activity thereof was set to 100%. The HEL, Molm-14 and K562 cell lines were treated with the respective compounds in the different concentrations and, after 72 h in culture, the metabolic activity, which gives information about the growth of the cells, was determined by means of MTT [3-(4,5-dimethylthiazol-2-yl)-2,5-diphenyltetrazolium bromide] assay.

[2] = system: AML cell line Molm-14; test: MTT assay, metabolic activity of Molm-14 cells; assay type: cell-based; details: 1 μM, 72 h, DMSO control set to 100%
Experimental: as §1, §2, §3, §4

[3] = system: HEL cells; test: Proliferation assay, cell count after trypan blue staining, HEL; assay type: cell-based; details: 1 or 5 μM, 24-72 h, by comparison with PFI-1
Experimental: (§5) Cell count and viability was determined after trypan blue staining. The appropriate concentrations of the inhibitors per ml of medium were added, or the correspondingly highest volume of DMSO was added as control group.
(§6) The cell growth described here is referred to as proliferation, and gives information as to the cell divisions that proceeded in the specified period.

[4] = system: Molm-14 cells; test: Proliferation assay, cell count after trypan blue staining, Molm-14; assay type: cell-based; details: 1 or 5 μM, 24-72 h, by comparison with PFI-1
Experimental: as §5, §6

[5] = system: PARP1 cleavage in HEL cells; test: PARP1 cleavage Western blot (apoptosis), HEL; assay type: cell-based; details: 5 μM
Experimental: Cell lysates were produced with RIPA lysis buffer (50 mM Tris pH 7.4, 150 mM sodium chloride, 1 mM EDTA, 1% Triton-X, 15% glycerol, 0.5% sodium deoxycholate, and protease/phosphatase inhibitors). Protein concentrations were determined by the Bradford Protein Assay using a Nanodrop Spectrometer (NanoDrop 2000/2000c system, Thermo Fisher Scientific, Darmstadt, Germany) at 595 nm. To 25 μg of protein lysates was added 4xLämmli sample buffer, followed by denaturing at 65° C. for 5 min and introduction into the SDS-Page. The proteins were transferred by the wet blot method in Towbin buffer (3 g Tris, 14.4 g glycine, 5% methanol per litre of ddH2O) to a PVDF membrane at 100 mA overnight. The membrane was blocked with 10% BSA in TBS-T buffer (20 mM Tris-HCl, pH 7.6, 137 mM NaCl, 0.05% IGEPAL). The primary antibodies were incubated at 4° C. overnight, and the HRP-labelled antibodies at room temperature with the membrane for […]. The proteins were detected by means of PCA-ECL solution using a chemiluminescence detector (Fusion SL, PeqLab).
In addition, a possible induction of apoptosis in the cell lines described by compound MF2 was examined. […] Protein concentrations were determined with the Bradford protein assay using a Nanodrop Spectrometer at 595 nm. […] The proteins were detected by means of PCA-ECL solution using a chemiluminescence detector (Fusion SL, PeqLab). […]

[6] = system: PBMC or CD34+ cells from healthy donors; test: CFU assay, healthy controls; assay type: cell-based, human
Experimental: With the aid of the CFU assay, it is possible to determine the colony-forming capacity of individual cells in a semisolid methylcellulose medium (MethoCult H4434, StemCell Technologies, Cologne, Germany). The number of colonies was determined after 7-11 days.
CD34+ cells (G-CSF mobilized from stem cell donors) from healthy donors: 2×10^4 cells/ml; PBMCs from the healthy subjects: 4×10^5 cells/ml.
For this purpose, mononuclear cells (PBMC: mononuclear cells from peripheral blood) or CD34-positive stem cells (CD34+ cells) were isolated from the blood of four healthy controls and three AML or MPN patients and introduced into semisolid medium, to each of which 1 μM or 5 μM of MFS-2 or PFI-1 have been added. Individual cells in the CFU assay form cell colonies in culture after 12 days, unless the formation thereof is prevented by inhibitors.

[7] = system: haematopoietic cell lines, erythroleukaemia and AML cell lines; test: Inhibitory activity in haematopoietic cell lines (summary statements); assay type: cell-based
Experimental: as §1, §2

For `CN1Cc2cc(N=[S@@](C)(=O)c3ccccc3)ccc2NC1=O` [MF2-S, (S)—N-(3-methyl-2-oxo-1,2,3,4-tetrahydroquinazolin-6-yl)-S-methyl-S-phenylsulfoximine], the “metabolic activity of HEL cells” value [1] was 37.24%±6.19, the “metabolic activity of Molm-14 cells” value [2] was 55.19%±0.72 and the “cell proliferation (cell count) of HEL” value [3] was “significantly reduced the cell proliferation”. The “cell proliferation (cell count) of Molm-14” value [4] was “significantly reduced the cell proliferation”, the “band for the PARP1 cleavage product, HEL” value ([5]; 48 h, compared to PFI-1) was “more marked in HEL cells than in the case of PFI-1 treatment” and the “induction of apoptosis, HEL” value ([5]; compared to MF2, MF2-R, PFI-1) was “induced apoptosis more strongly than the other compounds examined”. For the same compound, the “colony count, healthy CD34+ controls 3 and 4” value ([6]; 1 μM) was “reduced the colony count of the controls to a lesser degree”, the “colony count, healthy control 4” value ([6]; 1 μM) was “not significantly reduced” and the “colony count, healthy controls 1 (PBMC) and 2 (CD34+ cells)” value ([6]; 5 μM) was “likewise reduced the amount of colonies”. For the same compound, the “inhibitory activity in haematopoietic / leukaemia cell lines (in words)” value [7] was “excellent inhibition of the cell proliferation”.
